Data: publication PMC9578020, “Design, synthesis, molecular modeling, and bioactivity evaluation of 1,10-phenanthroline and prodigiosin (Ps) derivatives and their Copper(I) complexes against mTOR and HDAC enzymes as highly potent and effective new anticancer therapeutic drugs” (Frontiers in Pharmacology, 2022)
Read-outs that look alike come from different tables or passages of the source.

Assays:
[1] = tested on: MDA-MB-231BR (231BR); assay: CCK8 anticancer activity / cytotoxicity test, 231BR; type: cell-based
Protocol: (§1) The IC50 was calculated by SPSS statistics (IBM). […] All cytotoxicity tests were performed in six biological replicates.
(§2) The anticancer activity against 231BR is of highest interest. […] Figure 3 depicts the anticancer activities of these compounds.

[2] = tested on: CRL-1620 (CRL); assay: CCK8 anticancer activity / cytotoxicity test, CRL; type: cell-based; conditions: CRL, 48 h
[3] = tested on: MCF10A; assay: CCK8 cytotoxicity test on normal cell line MCF10A
Protocol: (§3) MDA-MB-231 (231) and HTB131 were grown with RPIM-1640 medium (with 10% Fetal Bovine Serum and 2% Penicillin-Streptomycin Solution). MDA-MB-231BR (231BR), CRL-1620 (CRL), and MCF10A were grown with DMEM (with 10% Fetal Bovine Serum and 2% Penicillin-Streptomycin Solution). HTB22 was grown with EMEM (with 10% Fetal Bovine Serum and 2% Penicillin-Streptomycin Solution). Cell lines were taken out from liquid nitrogen and thawed in a 37°C water bath. After thawing, cell cultures were transferred to 75 cm^2 flasks and incubated at 37°C with 5% CO2 for 4–7 days. After reaching 80% of cell confluence, cells were ready for subculturing or testing.
(§4) Anticancer activity tests were performed using a Cell Counting Kit-8 (CCK8, SigmaAldrich) following manufacturer’s instruction ([Shen et al., 2016]). Briefly, 100 µl of diluted cell suspension (approximately 10000 cells) was transferred to 96-well plate, incubated at 37°C with 5% CO2 for 24 h. Then, the compounds were diluted into a serial of concentrations in DMSO. Next, 0.5 µl of diluted compounds were added to 100 µl of cell medium and gently mixed, resulting in the final concentration of DMSO at 0.5%. 100 µl of the compound contained medium were then used to replace the original medium and incubated at 37°C for 48 h. After incubation with compounds, 10 µl of CCK8 reagent was added to each well and mixed by gently tapping the plate. Then, the plate was incubated at 37°C for 2–4 h until the orange color was dark enough to measure. The plate was measured using a Multiskan microplate reader (Fisher Scientific) at 450 nm. The IC50 was calculated by SPSS statistics (IBM). […] All cytotoxicity tests were performed in six biological replicates. Each compound was performed two cycles of screening: primary screening using 10 times serial dilution to determine the approximate concentration and then secondary screening using a narrow concentration range to acquire the accurate IC50.
(§5) The newly synthesized molecules in which their binding affinities were predicted in silico were tested on five different breast cancer lines, MDA-MB-231 (231), MDA-MB-361 (361), HTB131, HTB22, and MDA-MB-231BR (231BR), and one brain cancer cell line, CRL-1620 (CRL). […] Among these cell lines, 231BR attracted most of our interest because it is a brain metastatic specific breast cancer cell line that has 100% rate of brain metastasis and cannot migrate to any other organs ([Yoneda et al., 2001]). The anticancer capacities of each compound were first screened by 10 times dilution to generate different molar concentrations ranging in 5 orders of magnitudes. This wide concentration range was applied for primary screening (Supplementary Table S3) to narrow down the targets. The approximate IC50 was estimated in the primary screening step and used to design the concentration range of the secondary cytotoxicity tests (Supplementary Table S4). […] Anticancer drug taxol (paclitaxel) was used as the reference to estimate the efficacy of each compound. […] The anticancer activity against 231BR is of highest interest. Meanwhile, the same treatments were performed against the normal breast cell line, MCF10A, to test their cytotoxicity. […] A negative logarithm of IC50 was applied to represent the corresponding anticancer activity.

[4] = tested on: MDA-MB-231 (231); assay: CCK8 anticancer activity / cytotoxicity test, 231; type: cell-based, human
[5] = tested on: MDA-MB-361 (361); assay: CCK8 anticancer activity / cytotoxicity test, 361; type: cell-based; conditions: Homo sapiens
Protocol: as §1, §2

[6] = tested on: HTB131; assay: CCK8 anticancer activity / cytotoxicity test, HTB131; type: cell-based; conditions: HTB131, 48 h
[7] = tested on: HTB22; assay: CCK8 anticancer activity / cytotoxicity test, HTB22; type: cell-based; conditions: HTB22, 48 h, 10 times serial dilution; read-out: Approximate IC50, primary screening
Protocol: as §1, §2

[8] = CCK8 cytotoxicity test on normal cell line MCF10A; conditions: human, MCF10A normal breast cells
Protocol: as §3, §4, §5

[9] = 10 times serial dilution, read-out: Approximate IC50, primary screening
[10] = 231BR, 48 h, 10 times serial dilution, read-out: Approximate IC50, primary screening
[11] = 231BR, 48 h, narrow concentration range, read-out: IC50, secondary cytotoxicity test
[12] = narrow concentration range, read-out: IC50, secondary cytotoxicity test
[13] = read-out: IC50, secondary cytotoxicity test

CCC1=NC(=Cc2[nH]c(-c3ccc4[nH]ccc4c3)cc2OC)C=C1.CCC1=NC(=Cc2[nH]c(-c3ccc4[nH]ccc4c3)cc2OC)C=C1.F[P-](F)(F)(F)(F)F.[Cu+] [Compound C14]
anticancer activity increase of copper(I) complex compared with its ligand ([1]; 231BR, C14 compared with L14): 5.9 times
IC50 [2, 9]: 38300 nM
IC50 ([3]; read-out: Approximate IC50, primary screening, MCF10A normal cell line, 48 h, 10 times serial dilution): > 385000 nM

CCC1=N/C(=C\c2[nH]c(-c3cccn3C(=O)OC(C)(C)C)cc2OC)C=C1 [Compound L7]
IC50 [1, 10]: 75 nM
IC50 [1, 11]: 46.3 nM
IC50 ([1]; 231BR, 48 h, read-out: IC50, secondary cytotoxicity test): 0.017 µg/mL
IC50 ([4]; Homo sapiens, MDA-MB-231, 48 h, read-out: IC50, secondary cytotoxicity test): 0.0278 µg/mL
IC50 ([4]; Homo sapiens, MDA-MB-231, 231, 48 h, 10 times serial dilution, read-out: Approximate IC50, primary screening): 75 to 750 nM
IC50 ([4]; Homo sapiens, MDA-MB-231, 231, 48 h, narrow concentration range, read-out: IC50, secondary cytotoxicity test): 75.8 nM
IC50 ([5]; MDA-MB-361, 48 h, read-out: IC50, secondary cytotoxicity test): 2.12 µg/mL
IC50 ([5]; MDA-MB-361, 361, 48 h, 10 times serial dilution, read-out: Approximate IC50, primary screening): 750 to 7500 nM
IC50 ([5]; MDA-MB-361, 361, 48 h, Table S4, read-out: IC50, secondary cytotoxicity test): 5790 nM
IC50 [6, 9]: 75 to 750 nM
IC50 [6, 12]: 139 nM
IC50 [6, 13]: 0.0512 µg/mL
IC50 [7]: 750 to 7500 nM
IC50 [2, 9]: 750 to 7500 nM
IC50 [2, 12]: 409 nM
IC50 [2, 13]: 0.15 µg/mL
IC50 at 48 h [8]: 3930 nM
IC50 ([3]; Homo sapiens, MCF-10A, 48 h, read-out: Approximate IC50, primary screening): 75 to 750 nM

CCC1=NC(=Cc2[nH]c(-c3ncc[nH]3)cc2OC)C=C1.CCC1=NC(=Cc2[nH]c(-c3ncc[nH]3)cc2OC)C=C1.F[P-](F)(F)(F)(F)F.[Cu+] [Compound C10]
IC50 [1, 11]: 2200 nM
IC50 ([4]; 231, 48 h, narrow concentration range, read-out: IC50, secondary cytotoxicity test): 2860 nM
IC50 [6, 12]: 2170 nM
IC50 [2, 12]: 1600 nM
IC50 ([3]; read-out: IC50, secondary cytotoxicity test, MCF10A normal cell line, 48 h, Table S4): 1400 nM

CCC1=N/C(=C\c2[nH]c(-c3ccn[nH]3)cc2OC)C=C1 [Compound L9]
IC50 [1, 10]: > 168000 nM
IC50 [7]: > 168000 nM
IC50 [2, 9]: > 168000 nM

CCC1=NC(=Cc2[nH]c(-c3cccn3C(=O)OC(C)(C)C)cc2OC)C=C1 [L ^7]
IC50 [1]: 46.3 nM
IC50 [4]: 75.8 nM
IC50 [3]: 3390 nM
times lower cytotoxicity on normal cell line [3]: more than 80 times

CCC1=NC(=Cc2[nH]c(-c3ccn[nH]3)cc2OC)C=C1.CCC1=NC(=Cc2[nH]c(-c3ccn[nH]3)cc2OC)C=C1.F[P-](F)(F)(F)(F)F.[Cu+] [Compound C9]
IC50 [6, 9]: 10200 nM

CCC1=NC(=Cc2[nH]c(-c3cccc4cc[nH]c34)cc2OC)C=C1.CCC1=NC(=Cc2[nH]c(-c3cccc4cc[nH]c34)cc2OC)C=C1.F[P-](F)(F)(F)(F)F.[Cu+] [Compound C15]
IC50 [1, 10]: 31900 nM
